# According to patent US20110118337A1, “Method of Using Compositions Comprising MIR-192 and/or MIR-215 for the Treatment of Cancer” (Merck Sharp & Dohme Corp., priority 2008, published 2011):
# System: HCT116 DICER^ex5 cells
# Assay: Gene expression profiling (Agilent 44K microarray) after transfection of miR-192/miR-215 duplex mimetics
# Assay type: cell-based, human
# Conditions: 10 nM, vs mock-transfected
# Description: Synthetic duplex mimetics of miR-192 and miR-215 (sequences shown in TABLE 1) or a control target Luciferase siRNA (Luc), shown in TABLE 1, were transfected (10 nM final concentration) into HCT116 DICER^ex5, a human colorectal cancer cell line with hypomorphic DICER function (Cummins, J. M., et al., PNAS 103:3687-3692 (2006)). The transfections were carried out using Lipofectamine RNAiMax (Invitrogen) per the manufacturer's instructions. At 10 and 24 hours post-transfection, total RNA was extracted and gene expression profiling was carried out with the Agilent 44K microarray in comparison to RNA isolated from mock-transfected HCT116DICER^ex5 cells. Microarray analysis was carried out as described in Linsley, P. S., et al., Mol Cell Biol 27:2240-2252 (2007). Gene expression data analysis was done either with the Rosetta Resolver gene expression analysis software (Version 7.1 Rosetta Biosoftware).
substance,measurement,setting,value
"miR-192: Synthetic duplex mimetic of miR-192, guide CUGACCUAUGAAUUGACAGCC (SEQ ID NO:1), passenger SEQ ID NO:7 (sense CUGUCAAUUCAUCGGUCUGAU; listed as RNA, chemistry not given here; listed as Homo sapiens)",BCL2 transcript fold change,10 hr,−1.1 fold change
same,BRCA1 transcript fold change,10 hr,−1.02 fold change
same,CDC7 transcript fold change,10 hr,−1.63 fold change
same,CDC14A transcript fold change,10 hr,−1.02 fold change
same,CDC73 transcript fold change,10 hr,−1.2 fold change
same,CRK transcript fold change,10 hr,−1.42 fold change
same,CTCF transcript fold change,10 hr,−1.59 fold change
same,CUL5 transcript fold change,10 hr,−1.16 fold change
same,DBF4B transcript fold change,10 hr,−1.12 fold change
same,DEK transcript fold change,10 hr,−1.21 fold change
same,DLG5 transcript fold change,10 hr,−1.99 fold change
same,DTL transcript fold change,10 hr,−1.11 fold change
same,EMP1 transcript fold change,10 hr,−1.28 fold change
same,ERCC3 transcript fold change,10 hr,−1.3 fold change
same,EXTL2 transcript fold change,10 hr,−1.2 fold change
same,FGF2 transcript fold change,10 hr,−1.48 fold change
same,HOXA10 transcript fold change,10 hr,−1.7 fold change
same,HRH1 transcript fold change,10 hr,−1.36 fold change
same,KIF14 transcript fold change,10 hr,−1.03 fold change
same,KIF23 transcript fold change,10 hr,−1.01 fold change
same,LMNB2 transcript fold change,10 hr,−1.38 fold change
same,MACF1 transcript fold change,10 hr,−1.3 fold change
same,MAD2L transcript fold change,10 hr,−1.18 fold change
same,MCM3 transcript fold change,10 hr,−1.51 fold change
same,MCM6 transcript fold change,10 hr,−1.01 fold change
same,MCM10 transcript fold change,10 hr,−1.77 fold change
same,MIS12 transcript fold change,10 hr,−1.25 fold change
same,MKI67 transcript fold change,10 hr,−1.08 fold change
same,MPHOSPH1 transcript fold change,10 hr,−1.32 fold change
same,MTSS1 transcript fold change,10 hr,−1.06 fold change
same,NBN transcript fold change,10 hr,−1.49 fold change
same,NCAPH transcript fold change,10 hr,1.01 fold change
same,NEK1 transcript fold change,10 hr,−1.12 fold change
same,NFIB transcript fold change,10 hr,−1.47 fold change
same,NFYA transcript fold change,10 hr,−1.22 fold change
same,NIN transcript fold change,10 hr,−1.1 fold change
same,PAFAH1B1 transcript fold change,10 hr,−1.83 fold change
same,PAPD5 transcript fold change,10 hr,−1.32 fold change
same,PFTK1 transcript fold change,10 hr,1.03 fold change
same,PIM1 transcript fold change,10 hr,−1.2 fold change
same,PLAU transcript fold change,10 hr,−1.74 fold change
same,PLS3 transcript fold change,10 hr,−1.44 fold change
same,POLQ transcript fold change,10 hr,−1.03 fold change
same,POLS transcript fold change,10 hr,−1.23 fold change
same,PPP1CA transcript fold change,10 hr,−1.83 fold change
same,PRPF38A transcript fold change,10 hr,−1.11 fold change
same,RACGAP1 transcript fold change,10 hr,−1.34 fold change
same,RAD1 transcript fold change,10 hr,−1.2 fold change
same,RAD51 transcript fold change,10 hr,1.08 fold change
same,RAP1GAP transcript fold change,10 hr,−1.11 fold change
same,RB1 transcript fold change,10 hr,−1.21 fold change
same,SEPT10 transcript fold change,10 hr,−1.59 fold change
same,SERTAD2 transcript fold change,10 hr,−1.12 fold change
same,SH3BP4 transcript fold change,10 hr,−1.52 fold change
same,SMARCB1 transcript fold change,10 hr,−1.16 fold change
same,TDG transcript fold change,10 hr,−1.47 fold change
same,TDP1 transcript fold change,10 hr,−1.44 fold change
same,TOP1 transcript fold change,10 hr,−1.52 fold change
same,TUBGCP3 transcript fold change,10 hr,−1.26 fold change
same,USP1 transcript fold change,10 hr,−1.13 fold change
same,UVRAG transcript fold change,10 hr,−1.2 fold change
same,BCL2 transcript fold change,24 hr,−1.46 fold change
